Assay results reported in paper PMC12102759 (Protein Science : A Publication of the Protein Society, 2025).
Residues, ends and D or L forms follow the SMILES beside them. *: point of attachment. FITC = O=C1OC2(c3ccc(O)cc3Oc3cc(O)ccc32)c2ccc(NC(=S)*)cc21

Key:
Test in all cases: biochemical
Type in all cases: binding, SARS‐CoV‐2
NSP3 ADRP = NSP3 ADRP (Severe acute respiratory syndrome coronavirus 2, UniProt P0DTC1)
NSP3 SUD-M = NSP3 SUD-M (Severe acute respiratory syndrome coronavirus 2, UniProt P0DTC1)
NSP3 UBl1 = NSP3 UBl1 (Severe acute respiratory syndrome coronavirus 2, UniProt P0DTC1)

Work on `CC[C@H](C)[C@H](NC(=O)CNC(=O)[C@H](CC(C)C)NC(=O)[C@H](CC(C)C)NC(=O)[C@H](CCC(=O)O)NC(=O)[C@H](CO)NC(=O)[C@H](CC(C)C)NC(=O)[C@@H]1CCCN1C(=O)[C@H](Cc1c[nH]cn1)NC(=O)[C@H](CC(C)C)NC(=O)[C@H](Cc1ccc(O)cc1)NC(=O)[C@@H](NC(=O)[C@H](CO)NC(=O)CNC(=S)Nc1ccc2c(c1)C(=O)OC21c2ccc(O)cc2Oc2cc(O)ccc21)[C@@H](C)O)C(=O)N1CCC[C@H]1C(=O)N[C@@H](CC(C)C)C(=O)O` ({FITC}-GSTYLHPLSELLGIPL-OH) yielded a Kd (NSP3 ADRP) of 50.8 µM.

With `CC(C)C[C@H](NC(=O)[C@H](CC(=O)O)NC(=O)[C@H](CCC(=O)O)NC(=O)[C@H](CCC(=O)O)NC(=O)[C@@H](NC(=O)[C@H](Cc1ccccc1)NC(=S)Nc1ccc2c(c1)C(=O)OC21c2ccc(O)cc2Oc2cc(O)ccc21)[C@@H](C)O)C(=O)N[C@@H](Cc1c[nH]cn1)C(=O)N[C@@H](Cc1ccccc1)C(=O)N[C@H](C(=O)N[C@@H](CC(C)C)C(=O)N[C@@H](Cc1ccc(O)cc1)C(=O)NCC(=O)N[C@H](C(=O)N[C@H](C(=O)N1CCC[C@H]1C(=O)N[C@@H](CO)C(=O)O)[C@@H](C)O)C(C)C)C(C)C` ({FITC}-FTEEDLHFVLYGVTPS-OH) the Kd (NSP3 SUD-M) was 19 µM.

`CC(C)C[C@H](NC(=O)[C@H](C)NC(=O)[C@H](CC(C)C)NC(=O)[C@H](Cc1ccc(O)cc1)NC(=O)[C@H](CC(C)C)NC(=O)[C@H](CCC(N)=O)NC(=O)[C@H](CC(=O)O)NC(=O)[C@H](CC(C)C)NC(=O)[C@H](CC(C)C)NC(=O)[C@H](C)NC(=O)CNC(=O)[C@H](CCC(=O)O)NC(=O)[C@H](CC(=O)O)NC(=O)[C@H](CO)NC(=S)Nc1ccc2c(c1)C(=O)OC21c2ccc(O)cc2Oc2cc(O)ccc21)C(=O)N[C@@H](CCCNC(=N)N)C(=O)N[C@@H](CC(N)=O)C(=O)O` ({FITC}-SDEGALLDQLYLALRN-OH) showed a Kd (NSP3 UBl1) of 67 µM.
